Results: patent publication US20250041311A1, “Compound For Treating or Preventing Vimentin-Mediated Diseases” (Aluda Pharmaceuticals, Inc., priority 2021, published 2025)
“Also recorded” adds a separate entry of the source. Like-named read-outs stand apart in the source and are kept apart here.

Tests used:
A549 cells [1] = assay: Wound healing assay; format: cell-based, human; details: different concentrations of C52, 48 h, dose-dependent
Method: Wound healing assay: Cells were seeded in 6-well plates containing complete medium and cultured at 37° C. in a humidified air environment containing 5% CO2. […] […] The wound area and migrated cells within the wound area were photographed using a phase-contrast microscope. The wound area was measured using Image J software.

[2] = system: A549, AGS, U87, SMMC-7721, HUH7; assay: Cancer cell growth in vitro; format: cell-based, human; details: any concentration, highest 10 μM
Method: (§2) Cell culture: Human non-small cell lung cancer A549 cells, human pancreatic cancer PANC-1 cells, human glioma U87 cells, human liver cancer HUH7 cells and SMMC-7721 cells, and human gastric cancer AGS cells were purchased from ATCC or Stem Cell Bank of Chinese Academy of Sciences (Shanghai, China). Cells were cultured in RPMI1640 medium containing 10% fetal bovine serum (Sigma, USA), 100 U penicillin and 100 μg/ml streptomycin (Gibco, USA) at 37° C. in a humidified atmosphere containing 5% CO2.

PANC-1 cells [3] = assay: Exosome release from pancreatic cancer cells (NTA, Western blot); format: cell-based, human
Method: Human non-small cell lung cancer A549 cells and human pancreatic cancer PANC-1 cells were purchased from the Chinese Academy of Sciences Stem Cell Bank (Shanghai, China). […] Purification, characterization, and analysis of exosomes: To purify exosomes from cell culture supernatants, cells were cultured for 3 days in DMEM medium supplemented with 10% exosome-free FBS prepared by ultracentrifugation of regular FBS at 120,000 g for 16 h. Cell culture supernatants were collected and centrifuged at 500 g for 5 min and then at 2,000 g for 20 min to remove dead cells and cell debris. Then, large vesicles were removed by centrifugation at 12,000 g for 30 minutes. Crude exosomes were pelleted by ultracentrifugation of the supernatant at 110,000 g for 70 min (Backman Ti70), washed with PBS and filtered (0.2 μm). The pellet was then suspended and ultracentrifuged again at 110,000 g for 70 minutes. All ultracentrifugations were performed at 4° C. The size and number of exosomes were analyzed using an LM10 nanoparticle tracking system (NanoSight) equipped with a blue laser (405 nm). Transmission electron microscope (TEM) observation: The morphology of exosomes prepared from the culture supernatant was observed by transmission electron microscope (TEM). Exosome pellets were fixed overnight at 4° C. in 2% glutaraldehyde. Load a drop of 10 μL of the exosome suspension onto the Formvar/Carbon-coated TEM copper grid and let it stand for 20 min. Drain excess fluid. Samples were fixed with 1% uranyl acetate for 5 min, washed 8 times with double distilled water, and dried under incandescent lamp for 10 min, then examined with Tecnai G2 Spirit Bio TWIN transmission electron microscope (FEI, Hillsboro, USA, working voltage 120 kV). […] The lysate was centrifuged to remove insoluble material.

EAE mice = assay: MOG-induced experimental autoimmune encephalomyelitis (EAE) mouse model; format: in vivo
Huh7-NC12 cells = assay: Exosome release from liver cancer cells (luciferase exosome reporter, ExoHTP platform); format: cell-based; details: 48 h, luciferase activity of exosomes purified from supernatant
[4] = system: 84 selected human cancer-associated proteins in A549 cells; details: 3 μM C52 or 5 μM C52 for 48 h
Method: as §2
A total of 200 g of lysate protein was run on one Human XL Tumor Array (R&D Systems, Abingdon, UK). Followed the manufacturer's instructions exactly. The protein chip membrane was covered with plastic film and exposed to X-ray film for 8 minutes. Optical density on exposed X-ray film (hu.q, HQ-320XT, China) was quantified using a transmission mode scanner (EPSON, Beijing, China) and analyzed using Image J software.

DSS-induced colitis mice = assay: DSS-induced colitis mouse model; format: in vivo; details: 3 mg/kg C52 intragastric, 14 days
Method: Male BALB/c mice aged 6 to 7 weeks were given 2.8% DSS (Yisheng Biotechnology Co., Ltd., Shanghai) to induce ulcerative colitis through drinking water, and the model was established continuously for 7 days. From the first day of modeling, 3 mg/kg of […] or 300 mg/kg of the positive drug mesalamine (5'-aminosalicylic acid, 5-ASA) was given by intragastric administration, and continued after the modeling 7 days. The model group was given the same volume of solvent every day. The normal control group was fed routinely without any treatment. From the first day of modeling, the animals in each group were weighed every day, and the health condition of the mice, appearance of feces and hematochezia were recorded. When the body weight of the mice lost more than 25% during the modeling process, the animals were euthanized in time. After 14 days of administration of […], mice in each group were sacrificed by vertebral dislocation. The colon was harvested, photographed and its length measured. The colon near the rectum was cut and stored in 4% paraformaldehyde ([…] Biotechnology Co., Ltd., Wuhan) for HE staining to observe the histopathological changes of the colon. Mesenteric lymph nodes were collected for flow cytometric detection of the proportion of Treg cells.

A549 cells [5] = assay: Transwell cell invasive growth assay; format: cell-based, human; details: different concentrations of C52, 24 h
Method: (§1) Cell invasive growth assay: Inoculate 1×10E4 cells suspended in 100 μL serum-free RPMI-1640 medium into each upper chamber of a […] Transwell pre-coated with Matrigel and added with DMSO or […] (Cat.3422, Corning, NY, USA). in different concentrations. Add 600 μL of RPMI-1640 containing 10% FBS to the bottom chamber of each well. Cells in transwell plates were cultured for 24 h. Cells on the upper surface were gently wiped with a moistened cotton swab, while cells that passed through the Matrigel to the lower surface of the membrane were fixed with paraformaldehyde and stained with 0.1% crystal violet. These cells on the lower surface were considered invasive and counted in 5 random fields under an inverted microscope. The number of invasive cells was counted by Image J software.

PANC-1 cells [6] = assay: Transwell cell invasive growth assay; format: cell-based, human; details: different concentrations of C52, 24 h; more pronounced than in A549
Method: as §1

Treg cells = assay: Syngeneic mouse CT26 tumor model (Treg activation and regeneration); format: in vivo; details: 100 mg/kg C52 oral QD
Method: BALB/c mice were subcutaneously inoculated with 1×10E6 CT26 cells. Mice were randomly assigned to each treatment group. The tumor size was measured with a caliper, and the tumor volume was calculated by the following formula: V=length×width 2×1/2. Tumor-bearing mice were orally administered with vehicle or 100 mg/kg […], QD. On the 13th day after tumor inoculation, vehicle- and […]-treated mice were given a single intraperitoneal injection of low-dose (50 mg/kg) cyclophosphamide (Sigma-Aldrich). Mice were euthanized before tumors reached 2.0 cm in longest dimension. Spleen and lymph node samples were collected for flow cytometric analysis.

HEK293T cells = assay: Liposome-mediated pMAX-GFP transfection (endocytosis and endosomal trafficking); format: cell-based
[7] = C52 low and medium doses (10 or 30 mg/kg), oral once a day, vs vehicle

SMILES: O=C(Nc1ccc(F)cc1)Nc1ccc(Nc2nc(/C=C/c3ccccc3)nc(N3CCOCC3)n2)cc1 [Compound C52]
- closure rate of the gap size (A549 cells [1]): significantly decreased
- effect on the growth of cancer cells [2]: no effect
- exosomes in culture supernatant (nanoparticle tracking analysis) (PANC-1 cells [3]; 1 μM C52 vs DMSO): significantly reduced
- intracellular exosome levels (PANC-1 cells [3]; Western blot, 0.1, 1 and 10 μM C52, 48 h): did not reduce
- content of exosomal markers (CD9, CD63, TSG101) in prepared exosome samples (PANC-1 cells [3]; Western blot, 0.1, 1 and 10 μM C52, 48 h, extracellular): significant reduction
- animal weight loss (EAE mice; [7]): less weight loss; also recorded: reduced
- clinical disease scores (EAE mice; [7]): lower; also recorded: improved
- disease onset (EAE mice; [7]): relatively delayed
- therapeutic effect in EAE (EAE mice; mouse, in vivo, po, 100 mg/kg): no therapeutic effect
- inhibition of exosome release (Huh7-NC12 cells): comparable to that of the known exosome inhibitor GW4869; also recorded: effectively inhibit the release of exosomes
- effect on protein levels of vimentin and other signaling molecules involved in cell proliferation [4]: little or no effect
- disease activity index (DSS-induced colitis mice; vs vehicle): decreased
- histological score (DSS-induced colitis mice; vs vehicle): very significant reduction
- intestinal bleeding (DSS-induced colitis mice; vs vehicle): reduced
- shortened colon length (DSS-induced colitis mice; vs vehicle): marked improvement
- weight loss (DSS-induced colitis mice; vs vehicle): significantly less
- ratio of Treg to CD4+ T cells in the mesenteric lymph nodes (DSS-induced colitis mice; vs vehicle control): significantly higher
- migratory ability (Transwell) (A549 cells [5]): hindered the migratory ability
- migratory ability (Transwell) (PANC-1 cells [6]): hindered the migratory ability
- tumor growth vs vehicle-treated control mice (Treg cells; BALB/c mice with CT26 tumors): grow faster
- regeneration of Treg in lymph nodes (Treg cells; day 29, 16 days after low-dose cyclophosphamide): significantly increased
- inhibition of GFP expression (maximum) (HEK293T cells; C52 added 4 h after transfection, at 0.316 μM): approximately 40%
- EC50 (HEK293T cells; C52 after transfection, read-out: EC50 for inhibition of endosomal trafficking): 82 nM
- EC50 (HEK293T cells; C52 before transfection, read-out: EC50 for inhibition of endocytosis): 98 nM
- EC50 (HEK293T cells; C52 during entire transfection period, read-out: EC50 for inhibition of the whole process): 45 nM
- inhibition of GFP (HEK293T cells; C52 just before transfection only, at 0.316 μM): approximately 15%
- inhibition of GFP (maximum) (HEK293T cells; C52 just before transfection only, at 10 μM): approximately 40%
- maximum inhibition rate of GFP expression (HEK293T cells; C52 present throughout the transfection, at 0.316 μM): about 50%
- inhibition of GFP signal increase (Pseudovirus-2019-nCoV): as strong as that by the positive control
- IC50 (Pseudovirus-2019-nCoV; read-out: IC50 of inhibition of pseudovirus infection): < 50 nM
